Measurements from the NIST ThermoML archive (doi:10.1021/je500380x).

Experiment: mn = molality of the nth substance listed, in mol/kg
Settings: 100 kPa, Liquid; for electrical conductivity: Alternating current cell with electrodes; for viscosity: Falling or rolling sphere viscometry; for mass density: Vibrating tube method

CCC(=O)OCCN1CCNCC1 [2-(piperazin-1-yl)ethyl propionate] + O
Settings | electrical conductivity [S/m] | mass density [kg/m3] | viscosity [mPa·s]
293.15 K, m1 = 0.05 | 0.239 | 1000.1 | 1.031
293.15 K, m1 = 0.0999 | 0.436 | 1002.01 | 1.081
293.15 K, m1 = 0.1996 | 0.762 | 1005.79 | 1.172
293.15 K, m1 = 0.3 | 1.028 | 1009.71 | 1.247
293.15 K, m1 = 0.3997 | 1.25 | 1013.54 | 1.349
293.15 K, m1 = 0.5001 | 1.406 | 1017.42 | 1.464
293.15 K, m1 = 0.5992 | 1.56 | 1021.32 | 1.581
293.15 K, m1 = 0.6993 | 1.68 | 1025.14 | 1.726
293.15 K, m1 = 0.7997 | 1.77 | 1029.27 | 1.883
293.15 K, m1 = 0.9003 | 1.822 | 1033.09 | 2.075
293.15 K, m1 = 0.9988 | 1.85 | 1037.12 | 2.263
293.15 K, m1 = 1.199 | 1.86 | 1045.08 | 2.77
293.15 K, m1 = 1.402 | 1.8 | 1053.12 | 3.472
293.15 K, m1 = 1.6 | 1.68 | 1060.85 | 4.338
293.15 K, m1 = 1.802 | 1.523 | 1068.6 | 5.445
293.15 K, m1 = 1.998 | 1.35 | 1075.94 | 7.039
293.15 K, m1 = 2.2 | 1.16 | 1083.11 | 9.362
293.15 K, m1 = 2.402 | 0.955 | 1090.06 | 12.4
293.15 K, m1 = 2.6 | 0.779 | 1096.1 | 18.48
293.15 K, m1 = 2.798 | 0.595 | 1101.66 | 25.9
293.15 K, m1 = 3.002 | 0.461 | 1106.84 | 36.82
298.15 K, m1 = 0.05 | 0.267 | 998.94 | 0.92
298.15 K, m1 = 0.0999 | 0.486 | 1000.81 | 0.962
298.15 K, m1 = 0.1996 | 0.848 | 1004.54 | 1.039
298.15 K, m1 = 0.3 | 1.15 | 1008.41 | 1.103
298.15 K, m1 = 0.3997 | 1.4 | 1012.17 | 1.187
298.15 K, m1 = 0.5001 | 1.6 | 1015.99 | 1.289
298.15 K, m1 = 0.5992 | 1.76 | 1019.83 | 1.389
298.15 K, m1 = 0.6993 | 1.89 | 1023.57 | 1.51
298.15 K, m1 = 0.7997 | 2 | 1027.65 | 1.644
298.15 K, m1 = 0.9003 | 2.07 | 1031.4 | 1.805
298.15 K, m1 = 0.9988 | 2.12 | 1035.35 | 1.964
298.15 K, m1 = 1.199 | 2.13 | 1043.15 | 2.388
298.15 K, m1 = 1.402 | 2.06 | 1051.04 | 2.91
298.15 K, m1 = 1.6 | 1.94 | 1058.61 | 3.684
298.15 K, m1 = 1.802 | 1.76 | 1066.22 | 4.58
298.15 K, m1 = 1.998 | 1.57 | 1073.41 | 5.865
298.15 K, m1 = 2.2 | 1.36 | 1080.44 | 7.721
298.15 K, m1 = 2.402 | 1.16 | 1087.27 | 10.14
298.15 K, m1 = 2.6 | 0.931 | 1093.23 | 14.88
298.15 K, m1 = 2.798 | 0.738 | 1098.69 | 20.54
298.15 K, m1 = 3.002 | 0.578 | 1103.78 | 28.69
303.15 K, m1 = 0.05 | 0.296 | 997.53 | 0.828
303.15 K, m1 = 0.0999 | 0.538 | 999.38 | 0.864
303.15 K, m1 = 0.1996 | 0.941 | 1003.06 | 0.93
303.15 K, m1 = 0.3 | 1.28 | 1006.88 | 0.985
303.15 K, m1 = 0.3997 | 1.56 | 1010.59 | 1.058
303.15 K, m1 = 0.5001 | 1.78 | 1014.36 | 1.145
303.15 K, m1 = 0.5992 | 1.97 | 1018.15 | 1.232
303.15 K, m1 = 0.6993 | 2.11 | 1021.82 | 1.335
303.15 K, m1 = 0.7997 | 2.23 | 1025.85 | 1.45
303.15 K, m1 = 0.9003 | 2.31 | 1029.53 | 1.587
303.15 K, m1 = 0.9988 | 2.37 | 1033.42 | 1.722
303.15 K, m1 = 1.199 | 2.4 | 1041.09 | 2.079
303.15 K, m1 = 1.402 | 2.35 | 1048.83 | 2.519
303.15 K, m1 = 1.6 | 2.22 | 1056.27 | 3.163
303.15 K, m1 = 1.802 | 2.04 | 1063.74 | 3.903
303.15 K, m1 = 1.998 | 1.828 | 1070.79 | 4.953
303.15 K, m1 = 2.2 | 1.59 | 1077.7 | 6.458
303.15 K, m1 = 2.402 | 1.37 | 1084.44 | 8.415
303.15 K, m1 = 2.6 | 1.109 | 1090.28 | 12.17
303.15 K, m1 = 2.798 | 0.878 | 1095.67 | 16.6
303.15 K, m1 = 3.002 | 0.722 | 1100.68 | 22.77
308.15 K, m1 = 0.05 | 0.327 | – | 0.75
308.15 K, m1 = 0.0999 | 0.595 | – | 0.783
308.15 K, m1 = 0.1996 | 1.042 | – | 0.839
308.15 K, m1 = 0.3 | 1.416 | – | 0.887
308.15 K, m1 = 0.3997 | 1.729 | – | 0.951
308.15 K, m1 = 0.5001 | 1.97 | – | 1.027
308.15 K, m1 = 0.5992 | 2.19 | – | 1.102
308.15 K, m1 = 0.6993 | 2.36 | – | 1.19
308.15 K, m1 = 0.7997 | 2.49 | – | 1.292
308.15 K, m1 = 0.9003 | 2.59 | – | 1.407
308.15 K, m1 = 0.9988 | 2.66 | – | –
308.15 K, m1 = 1.199 | 2.7 | – | –
308.15 K, m1 = 1.402 | 2.65 | – | –
308.15 K, m1 = 1.6 | 2.53 | – | –
308.15 K, m1 = 1.802 | 2.33 | – | –
308.15 K, m1 = 1.998 | 2.11 | – | –
308.15 K, m1 = 2.2 | 1.85 | – | –
308.15 K, m1 = 2.402 | 1.6 | – | –
308.15 K, m1 = 2.6 | 1.305 | – | –
308.15 K, m1 = 2.798 | 1.06 | – | –
308.15 K, m1 = 3.002 | 0.848 | – | –
